Reference: BigSolDB 2.1

CC[C@H](C)C(=O)O[C@H]1C[C@H](O)C=C2C=C[C@H](C)[C@H](CC[C@@H](O)C[C@@H](O)CC(=O)[O-])[C@H]21.[Na+]
Details | solubility (mole fraction)
in ethanol, 278 K | 0.0031
in ethanol, 283 K | 0.00325
in ethanol, 288 K | 0.00346
in ethanol, 293 K | 0.00366
in ethanol, 298 K | 0.00406
in ethanol, 303 K | 0.00429
in ethanol, 318 K | 0.00569
in ethanol, 323 K | 0.00692
in ethanol, 328 K | 0.00793
in ethanol, 333 K | 0.00942
in isopropanol, 278 K | 0.000605
in isopropanol, 283 K | 0.000684
in isopropanol, 288 K | 0.000753
in isopropanol, 293 K | 0.000818
in isopropanol, 298 K | 0.000903
in isopropanol, 303 K | 0.00103
in isopropanol, 308 K | 0.0011
in isopropanol, 318 K | 0.00141
in isopropanol, 322.9 K | 0.00164
in isopropanol, 327.9 K | 0.0019
in methanol, 277.8 K | 0.0225
in methanol, 283 K | 0.0245
in methanol, 287.9 K | 0.027
in methanol, 293 K | 0.0301
in methanol, 297.8 K | 0.0326
in methanol, 302.9 K | 0.0373
in methanol, 308 K | 0.0418
in methanol, 313 K | 0.0492
in methanol, 318 K | 0.0588
in methanol, 324 K | 0.0687
in n-butanol, 278.1 K | 0.00108
in n-butanol, 283 K | 0.00118
in n-butanol, 288 K | 0.00127
in n-butanol, 293 K | 0.00144
in n-butanol, 298 K | 0.00159
in n-butanol, 303 K | 0.00178
in n-butanol, 308 K | 0.00223
in n-butanol, 313 K | 0.0029
in n-butanol, 318.2 K | 0.00345
in n-butanol, 323 K | 0.00408
in n-butanol, 328 K | 0.00493
in n-propanol, 278 K | 0.00208
in n-propanol, 283 K | 0.00216
in n-propanol, 288 K | 0.00219
in n-propanol, 293 K | 0.00227
in n-propanol, 298 K | 0.00238
in n-propanol, 308 K | 0.00343
in n-propanol, 313 K | 0.00449
in n-propanol, 318 K | 0.0062
in n-propanol, 328 K | 0.0122
in n-propanol, 333 K | 0.0158
in water, 278.4 K | 0.00911
in water, 283 K | 0.0119
in water, 288 K | 0.0162
in water, 293 K | 0.0216
in water, 298 K | 0.0285
in water, 303 K | 0.0343
in water, 313 K | 0.0477
in water, 318 K | 0.0553
in water, 323 K | 0.0642
in water, 328 K | 0.0723
in water, 333 K | 0.0841
